These results are taken from patent US6399567B1, “Cyclic hexapeptides having antibiotic activity” (Fujisawa Pharmaceutical Co., Ltd., priority 1996, dated 2002).

Data set [1] in a line: Solubility (physico-chemical properties).
Another data set deals with Candida albicans FP633. Briefly: Antimicrobial activity, serial broth dilution method (96-well microtiter plate). Format: cell-based. The note with it: MEM, 1×10^5 cfu/ml, 37° C. for 24 hours, microscopic observation. As to the method: (§1) Test (Antimicrobial activity):
(§2) Test Compound The object compound of Example 1
(§3) Antimicrobial activity of the object compound of Example 1 was determined by a serial broth dilution method using 96-well microtiter plate in 100 μl of MEM (Eagle's minimum essential medium) for Candida albicans and in 100 μl of yeast nitrogen base dextrose medium for both Asperaillus fumigatus and Cryptococcus neoformans. The inoculum was adjusted to 1×10^5 colony forming units/ml. Candida albicans and Asperaillus fumigatus were cultured at 37° C. for 24 hours and Cryptococcus neoformans was cultured at 37° C. for 48 hours in 5% CO2 incubator. After incubation, the growth inhibition of microorganisms in each well was determined by microscopic observation. The results were shown as MEC (minimum effective concentration: μg/ml) value (Table 2).
On the technique in general: Dilution methods test growth across graded concentrations, often in twofold steps.

Data set [2] relates to Aspergillus fumigatus FP1305. The data set is described as above. Format: cell-based. Particulars: yeast nitrogen base dextrose medium, 1×10^5 cfu/ml, 37° C. for 24 hours, microscopic observation. As to the method:
as §1, §2, §3

As usually defined, the melting point is the temperature, or range, at which the solid turns liquid. Molecule `CC(O)C1NC(=O)C(N)CC(O)C(O)NC(=O)C2C(O)CCN2C(=O)C(C(O)CC(N)=O)NC(=O)C(C(O)C(O)c2ccc(O)c(OS(=O)(=O)O)c2)NC(=O)C2CC(O)CN2C1=O` (stereo not drawn) [Example 2] registered a melting point of 150 to 155 °C.
Turning to `CCCCCCCCCCCCCCCC(=O)NC1CC(O)C(O)NC(=O)C2C(O)CCN2C(=O)C(C(O)CC(N)=O)NC(=O)C(C(O)C(O)c2ccc(O)c(OS(=O)(=O)[O-])c2)NC(=O)C2CC(O)CN2C(=O)C(C(C)O)NC1=O.[Na+]` (stereo not drawn) [Example 1], the melting point was 165 to 170 °C (dec.). For the same molecule, the Solubility result in data set [1] (acetone) is “slightly soluble”. Also, the Solubility result in data set [1] (chloroform) is “insoluble”. In addition, in data set [1] (ethyl acetate), the Solubility result is listed as “slightly soluble”. In addition, the Solubility entry in data set [1] (methanol) was “soluble”. The Solubility entry in data set [1] (water) is listed as “soluble”. Also, the “MEC (minimum effective concentration)” value in the data set with Candida albicans FP633 amounted to 0.04 µg/mL. In data set [2], the “MEC (minimum effective concentration)” value was 0.08 µg/mL.
